# Laboratory results: ChEMBL document CHEMBL1201862, “PubChem BioAssay data set” (2004)
# Active and inactive are the calls of the source.
# Assays:
# [1] = viability of uninfected HEp-2 cells – cell-based, HTS, cytotoxicity control for RSV inhibitor project, dose response (AID 2410); type: functional; details: human respiratory syncytial virus
# Vero = experiment: cells; type: functional, cell-based; details: Chlorocebus sabaeus
# [2] = target: T1, Dual specificity protein phosphatase 6 (Rattus norvegicus, UniProt Q64346); experiment: inhibition of rat DUSP6 enzyme activity – biochemical, in vitro, primary screen (AID 425)
# T1 sequence (Q64346 whole entry): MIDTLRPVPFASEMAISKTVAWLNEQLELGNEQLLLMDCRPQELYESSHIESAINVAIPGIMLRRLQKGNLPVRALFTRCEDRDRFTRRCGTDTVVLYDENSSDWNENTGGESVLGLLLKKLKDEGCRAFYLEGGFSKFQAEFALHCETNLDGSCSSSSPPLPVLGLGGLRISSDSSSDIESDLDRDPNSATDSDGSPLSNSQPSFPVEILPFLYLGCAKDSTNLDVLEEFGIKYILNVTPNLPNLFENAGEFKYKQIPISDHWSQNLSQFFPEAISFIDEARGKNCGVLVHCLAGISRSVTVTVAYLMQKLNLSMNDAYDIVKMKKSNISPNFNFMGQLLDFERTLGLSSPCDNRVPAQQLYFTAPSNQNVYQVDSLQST
# [3] = target: Endoplasmic reticulum aminopeptidase 1 (Homo sapiens, UniProt Q9NZ08); experiment: inhibition of human ERAP1 enzyme activity – biochemical, cherry-pick, set 2, plate reader, dose response (AID 743314)
# Chain of Endoplasmic reticulum aminopeptidase 1 (Q9NZ08 whole entry): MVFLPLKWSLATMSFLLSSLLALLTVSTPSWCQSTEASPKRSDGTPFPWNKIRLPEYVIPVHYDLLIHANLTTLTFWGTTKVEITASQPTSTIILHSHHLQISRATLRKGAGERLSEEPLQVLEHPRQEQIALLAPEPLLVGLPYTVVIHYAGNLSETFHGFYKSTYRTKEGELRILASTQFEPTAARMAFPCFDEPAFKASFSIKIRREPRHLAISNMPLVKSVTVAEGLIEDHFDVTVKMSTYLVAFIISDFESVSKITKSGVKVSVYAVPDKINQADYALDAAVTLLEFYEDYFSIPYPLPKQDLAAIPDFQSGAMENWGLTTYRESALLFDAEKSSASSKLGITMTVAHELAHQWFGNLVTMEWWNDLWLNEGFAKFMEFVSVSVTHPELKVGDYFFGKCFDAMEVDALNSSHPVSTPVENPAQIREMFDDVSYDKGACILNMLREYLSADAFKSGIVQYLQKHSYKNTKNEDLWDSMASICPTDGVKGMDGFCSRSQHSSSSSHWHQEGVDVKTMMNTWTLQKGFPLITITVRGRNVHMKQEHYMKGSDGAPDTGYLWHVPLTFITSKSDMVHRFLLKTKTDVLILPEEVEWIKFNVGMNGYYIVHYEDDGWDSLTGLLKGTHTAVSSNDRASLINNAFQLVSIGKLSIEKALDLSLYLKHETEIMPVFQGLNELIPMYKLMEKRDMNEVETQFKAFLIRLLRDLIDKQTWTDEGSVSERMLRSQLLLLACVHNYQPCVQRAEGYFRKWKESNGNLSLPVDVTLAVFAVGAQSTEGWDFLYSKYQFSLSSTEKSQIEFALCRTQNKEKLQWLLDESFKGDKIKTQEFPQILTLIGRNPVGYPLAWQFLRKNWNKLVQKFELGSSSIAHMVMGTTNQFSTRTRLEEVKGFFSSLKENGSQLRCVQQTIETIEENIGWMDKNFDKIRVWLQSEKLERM
# HeLa = experiment: viability loss in HeLa cells – cell-based, 24 h, cherry-picked samples, cytotoxicity control, dose response (AID 504726); type: functional; details: Homo sapiens;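 also: potency for cytotoxicity as loss of luminescence signal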
# [4] = fluconazole-exposed Candida albicans growth modulators – fluorescence, retest, confirmation (AID 2467); type: functional, cell-based
# [5] = target: T2, DNA repair protein RAD52 homolog (Homo sapiens, UniProt P43351); type: functional, biochemical
# T2 sequence (P43351 whole entry): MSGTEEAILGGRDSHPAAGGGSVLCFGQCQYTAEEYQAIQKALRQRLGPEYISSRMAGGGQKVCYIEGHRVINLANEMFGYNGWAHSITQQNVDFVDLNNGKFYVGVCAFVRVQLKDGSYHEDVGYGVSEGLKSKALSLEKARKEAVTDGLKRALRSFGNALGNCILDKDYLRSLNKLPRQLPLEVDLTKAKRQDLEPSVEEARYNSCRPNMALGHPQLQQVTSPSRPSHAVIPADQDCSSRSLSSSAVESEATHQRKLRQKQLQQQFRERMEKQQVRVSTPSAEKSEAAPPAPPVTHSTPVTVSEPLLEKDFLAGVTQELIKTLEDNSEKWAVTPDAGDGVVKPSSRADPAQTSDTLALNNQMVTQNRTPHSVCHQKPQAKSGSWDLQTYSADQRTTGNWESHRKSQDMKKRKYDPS
# INS1 = experiment: INS-1E survival protection against cytokine death – cell-based, luminescence, retest, dose response (AID 449756); type: functional; details: Rattus norvegicus;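 also: cell death triggered by IL-1 beta plus TNF-alpha plus IFN-gamma mixture; protective hits raise ATP signal compared with cytokine alone wells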
# [6] = NIH-3T3 fibroblast cytotoxicity, dose response, cytotoxicity control, cell-based, fluorescence, Alamar Blue, secondary assay (AID 2327); type: functional;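 also: NIH-3T3 mouse fibroblasts cultured with fluconazole at 8 µg/mL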
# [7] = microbe, parasite or virus in culture; type: functional; details: Mycobacterium tuberculosis
# [8] = target: T3, COUP transcription factor 2 (Homo sapiens, UniProt P24468); experiment: Luminescence-based cell-based high throughput dose response assay to identify inhibitors of COUP-TFII (NR2F2).; type: functional;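 also: HEK293 cells transiently cotransfected with COUP-TFII expression vector and reporter; luciferase reporter luminescence driven by COUP-TFII from the pX2-168 reporter plasmid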
# T3 sequence (P24468 whole entry): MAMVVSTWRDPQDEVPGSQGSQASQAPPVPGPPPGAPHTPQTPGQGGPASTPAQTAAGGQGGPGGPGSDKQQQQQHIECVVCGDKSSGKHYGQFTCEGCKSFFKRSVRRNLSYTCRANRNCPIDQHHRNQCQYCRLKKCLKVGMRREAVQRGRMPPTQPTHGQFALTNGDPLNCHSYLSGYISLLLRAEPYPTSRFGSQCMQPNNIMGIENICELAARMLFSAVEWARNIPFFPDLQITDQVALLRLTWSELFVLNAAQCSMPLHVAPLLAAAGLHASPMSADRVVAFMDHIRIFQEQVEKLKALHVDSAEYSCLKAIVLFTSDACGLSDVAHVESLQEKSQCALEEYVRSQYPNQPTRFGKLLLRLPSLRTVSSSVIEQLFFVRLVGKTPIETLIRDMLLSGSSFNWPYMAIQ
# [9] = target: Luciferin 4-monooxygenase (Photinus pyralis, UniProt P08659); experiment: inhibition of purified Photinus pyralis luciferase – biochemical, luminescence, dose response (AID 1891)
# Chain of Luciferin 4-monooxygenase (P08659 whole entry): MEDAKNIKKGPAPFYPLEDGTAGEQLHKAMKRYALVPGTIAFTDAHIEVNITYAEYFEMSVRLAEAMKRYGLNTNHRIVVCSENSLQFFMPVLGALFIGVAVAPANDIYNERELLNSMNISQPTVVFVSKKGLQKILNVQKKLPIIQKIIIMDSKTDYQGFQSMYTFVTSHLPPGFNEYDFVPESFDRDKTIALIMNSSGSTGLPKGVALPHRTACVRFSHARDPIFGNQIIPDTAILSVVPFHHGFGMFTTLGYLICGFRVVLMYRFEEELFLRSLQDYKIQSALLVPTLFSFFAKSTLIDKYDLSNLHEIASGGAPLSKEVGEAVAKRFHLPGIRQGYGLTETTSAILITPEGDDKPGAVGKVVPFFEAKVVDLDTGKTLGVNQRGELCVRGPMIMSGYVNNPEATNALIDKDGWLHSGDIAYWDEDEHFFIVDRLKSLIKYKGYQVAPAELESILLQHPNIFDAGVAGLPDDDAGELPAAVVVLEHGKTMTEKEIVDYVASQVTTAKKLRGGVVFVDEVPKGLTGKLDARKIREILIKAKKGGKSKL
# [10] = Luminescence Cell-Based Dose Confirmation HTS to Identify Inhibitors of Platelet Dense Granule Release. [Related pubchem assays: 1663 (Primary HTS), 1678 (Summary of Project)]; type: functional
# [11] = Luminescence-based cell-based high throughput dose response assay to identify activators of the DAF-12 from the parasite S. stercoralis (ssDAF-12).; type: functional
# Protein skinhead-1 = target: T4, Protein skinhead-1 (Caenorhabditis elegans, UniProt P34707); type: functional
# T4 sequence (P34707 whole entry): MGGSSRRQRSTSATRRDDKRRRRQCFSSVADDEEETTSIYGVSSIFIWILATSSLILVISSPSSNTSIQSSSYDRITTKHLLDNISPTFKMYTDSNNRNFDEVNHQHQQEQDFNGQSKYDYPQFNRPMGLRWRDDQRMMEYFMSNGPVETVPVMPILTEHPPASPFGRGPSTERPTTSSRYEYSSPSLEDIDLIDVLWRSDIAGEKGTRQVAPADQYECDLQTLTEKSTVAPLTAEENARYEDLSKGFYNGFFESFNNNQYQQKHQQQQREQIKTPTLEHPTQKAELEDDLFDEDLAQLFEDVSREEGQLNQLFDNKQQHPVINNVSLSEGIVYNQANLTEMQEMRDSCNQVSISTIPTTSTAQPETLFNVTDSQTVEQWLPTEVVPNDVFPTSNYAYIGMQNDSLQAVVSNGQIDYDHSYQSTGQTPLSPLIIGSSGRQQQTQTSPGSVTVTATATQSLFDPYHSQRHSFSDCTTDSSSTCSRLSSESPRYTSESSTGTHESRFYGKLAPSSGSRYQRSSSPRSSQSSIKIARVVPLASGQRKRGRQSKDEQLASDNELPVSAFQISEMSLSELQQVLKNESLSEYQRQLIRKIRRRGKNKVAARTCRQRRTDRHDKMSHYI
# [12] = target: Neurotensin receptor type 1 (Homo sapiens, UniProt P30989); type: functional;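 also: Image-based confirmatory dose-response assay measuring agonist activity at NTR1; NTR1-expressing U2OS osteosarcoma cells imaged for beta-arrestin GFP spot formation; agonist potency where compounds increase beta-arrestin recruitment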
# Chain of Neurotensin receptor type 1 (P30989 whole entry): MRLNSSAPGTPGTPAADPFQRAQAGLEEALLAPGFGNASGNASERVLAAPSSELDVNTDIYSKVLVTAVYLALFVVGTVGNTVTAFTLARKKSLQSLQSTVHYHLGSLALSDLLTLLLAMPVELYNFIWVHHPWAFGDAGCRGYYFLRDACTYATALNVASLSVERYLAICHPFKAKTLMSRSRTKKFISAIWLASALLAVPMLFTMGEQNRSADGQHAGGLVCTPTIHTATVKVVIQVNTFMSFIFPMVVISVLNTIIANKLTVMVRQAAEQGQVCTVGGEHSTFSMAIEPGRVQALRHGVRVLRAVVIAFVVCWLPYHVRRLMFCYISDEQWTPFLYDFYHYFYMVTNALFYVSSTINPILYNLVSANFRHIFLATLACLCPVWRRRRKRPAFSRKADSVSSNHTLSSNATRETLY
# Genome polyprotein = Genome polyprotein (dengue virus type 2, UniProt P29990); experiment: flavivirus cap methylation enzyme inhibition – biochemical, confirmation dose response, primary screen (AID 588689); type: functional
# Chain of Genome polyprotein (P29990 2492-3391 limits assumed): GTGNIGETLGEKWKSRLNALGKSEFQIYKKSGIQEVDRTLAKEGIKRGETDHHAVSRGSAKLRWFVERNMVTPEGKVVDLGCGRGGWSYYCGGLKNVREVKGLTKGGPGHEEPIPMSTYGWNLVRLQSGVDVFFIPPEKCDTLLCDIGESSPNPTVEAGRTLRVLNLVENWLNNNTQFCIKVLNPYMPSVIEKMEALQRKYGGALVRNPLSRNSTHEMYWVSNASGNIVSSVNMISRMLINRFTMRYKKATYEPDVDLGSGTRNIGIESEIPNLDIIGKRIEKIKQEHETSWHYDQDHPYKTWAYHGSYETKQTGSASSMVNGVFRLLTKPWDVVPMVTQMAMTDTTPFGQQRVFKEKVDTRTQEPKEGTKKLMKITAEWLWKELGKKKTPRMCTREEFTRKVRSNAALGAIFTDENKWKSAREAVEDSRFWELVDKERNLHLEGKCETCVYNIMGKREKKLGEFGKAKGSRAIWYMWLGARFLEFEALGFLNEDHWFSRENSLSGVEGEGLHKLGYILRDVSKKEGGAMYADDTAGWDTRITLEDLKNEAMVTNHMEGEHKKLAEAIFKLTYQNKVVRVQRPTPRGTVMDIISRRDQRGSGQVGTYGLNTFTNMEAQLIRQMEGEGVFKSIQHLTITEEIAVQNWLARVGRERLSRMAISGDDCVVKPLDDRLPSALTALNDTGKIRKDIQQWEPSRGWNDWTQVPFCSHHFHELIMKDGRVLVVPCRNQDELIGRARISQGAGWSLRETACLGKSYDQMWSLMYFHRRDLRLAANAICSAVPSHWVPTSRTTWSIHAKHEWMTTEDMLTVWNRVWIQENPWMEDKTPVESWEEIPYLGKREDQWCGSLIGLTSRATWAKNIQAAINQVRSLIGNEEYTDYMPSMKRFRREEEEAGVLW
# [13] = target: T5, Rac GTPase-activating protein 1 (Homo sapiens, UniProt Q9H0H5); experiment: blockers of MgcRacGAP-driven Rac1 GTP hydrolysis – biochemical, ADP Hunter fluorescence, primary and confirmatory, confirmation (AID 624330); type: functional
# T5 sequence (Q9H0H5 whole entry): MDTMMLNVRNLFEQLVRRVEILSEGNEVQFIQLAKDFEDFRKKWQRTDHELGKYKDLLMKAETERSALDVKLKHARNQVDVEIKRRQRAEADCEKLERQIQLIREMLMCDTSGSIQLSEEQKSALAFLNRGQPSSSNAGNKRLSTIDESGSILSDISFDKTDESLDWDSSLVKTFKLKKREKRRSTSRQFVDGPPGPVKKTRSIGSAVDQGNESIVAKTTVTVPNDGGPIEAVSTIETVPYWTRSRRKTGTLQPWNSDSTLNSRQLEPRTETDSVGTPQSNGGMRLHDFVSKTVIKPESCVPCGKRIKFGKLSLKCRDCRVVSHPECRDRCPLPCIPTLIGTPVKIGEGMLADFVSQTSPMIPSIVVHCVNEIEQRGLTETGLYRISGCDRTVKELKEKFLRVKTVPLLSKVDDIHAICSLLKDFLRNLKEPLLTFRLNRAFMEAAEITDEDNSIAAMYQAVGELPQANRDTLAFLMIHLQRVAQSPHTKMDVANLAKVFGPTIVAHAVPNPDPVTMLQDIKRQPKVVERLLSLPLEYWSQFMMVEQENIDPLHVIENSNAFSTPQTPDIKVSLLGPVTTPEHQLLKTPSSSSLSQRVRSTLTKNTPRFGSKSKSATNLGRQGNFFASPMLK
# P388/ADR = experiment: cells; type: functional; details: Mus musculus
# P388 = experiment: cells; type: functional; details: Mus musculus
# [14] = non-specific 3'UTR reporter inhibition in Clone20-Shn3RL – cell-based, Renilla luciferase, cherry-picked, counter-screen for Shn3 inhibitor project, dose response (AID 624133); type: functional
# Paired box protein Pax-8 = Paired box protein Pax-8 (Homo sapiens, UniProt Q06710); experiment: PAX8 transcriptional activity inhibition in RMG-I – RMG-I cells, luciferase, cherry-pick, dose response (AID 687027); type: functional, cell-based;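 also: luciferase reporter driven by Pax8 target thyroperoxidase promoter measured by SteadyGlo luminescence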
# Chain of Paired box protein Pax-8 (Q06710 whole entry): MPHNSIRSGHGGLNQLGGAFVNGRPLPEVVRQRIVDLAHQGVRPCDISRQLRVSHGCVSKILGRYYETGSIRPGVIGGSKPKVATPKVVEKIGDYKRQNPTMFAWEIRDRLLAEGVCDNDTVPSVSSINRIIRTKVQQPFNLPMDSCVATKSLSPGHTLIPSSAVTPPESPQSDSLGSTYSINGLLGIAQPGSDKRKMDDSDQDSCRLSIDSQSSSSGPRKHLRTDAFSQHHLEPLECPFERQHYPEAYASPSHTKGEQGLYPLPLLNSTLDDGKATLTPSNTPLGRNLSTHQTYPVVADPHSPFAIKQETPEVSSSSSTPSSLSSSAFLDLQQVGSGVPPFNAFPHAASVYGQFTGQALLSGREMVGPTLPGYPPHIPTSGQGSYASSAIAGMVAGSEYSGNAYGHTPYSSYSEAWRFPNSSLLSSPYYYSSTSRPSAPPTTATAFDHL
# SN12K1 = experiment: cells; type: functional; details: Homo sapiens
# [15] = reduction of Shn3 3'UTR-driven luciferase in osteoblasts – cell-based, Clone20 osteoblasts, firefly luciferase, cherry-picked, dose response (AID 624132); type: functional;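 also: firefly luciferase luminescence from reporter carrying the Shn3 3'UTR in osteoblasts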
# [16] = Luminescence Cell-Based Dose Retest to Confirm Inhibitors of Cancer Stem Cells. [Related pubchem assays (depositor defined):AID2717, AID2721]; type: functional; details: Homo sapiens
# [17] = OVCAR8 cell viability loss – plate reader, dry powder samples, PAX8 project, dose response (AID 743197); type: functional, cell-based; details: OVCAR-8
# [18] = Dd2 malaria parasite growth inhibition potency – SYBR Green, dry powder samples, dose response (AID 1159566); type: functional, cell-based;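 also: potency for growth inhibition with lower SYBR green DNA signal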
# [19] = P. falciparum Dd2 growth inhibitors, dose response, SYBR Green, cherry-picked samples (AID 1159567); type: functional, cell-based
# [20] = toxicity to human HepG2 hepatoma cells – cell-based, plate reader, dry powder samples, cytotoxicity control, dose response (AID 1159569); type: functional;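 also: inhibitor potency with signal falling toward the positive control level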
# [21] = growth inhibition of PfATP4-mutant resistant parasites – NITD609-resistant line, SYBR Green, dry powder, dose response (AID 1159571); type: functional, cell-based;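 also: parasites synchronized at ring stage by sorbitol before testing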
# [22] = growth inhibition of yeast DHODH-expressing 3D7 parasites – SYBR Green, dry powder samples, dose response (AID 1159570); type: functional, cell-based;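 also: parasite growth measured after 72 hours of compound exposure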
compound,measurement,setting,value
Cc1ccc(NC(=O)CN(C)C(=O)CSc2nc3ccccc3c(=O)n2Cc2ccco2)cc1,CC50,[1],36.7 µM (active)
same,IC50,cells,44.3 µM (active)
O=C(CCNC(=O)c1ccc(Br)cc1)NC1CCCc2ccccc21 (stereo unspecified),IC50,Vero,9.27 µM (active)
same,CC50,[1],43.7 µM (active)
same,IC50,cells,6.76 µM (active)
COc1ccc(Cc2nn3c(-c4cc(OC)c(OC)c(OC)c4)nnc3s2)cc1,IC50,[2],> 100 µM (not active)
CN(C)Cc1c(O)ccc2cc(-c3nc4ccccc4n3C)c(=O)oc12,AC50,[3],1.56 µM (active)
Cc1ccc(/C=C/S(=O)(=O)N2CCC(C(=O)O)CC2)cc1,AC50,HeLa,> 350 µM (inactive)
Oc1ccc(-[n+]2c(-c3ccccc3)cc(-c3ccccc3)cc2-c2ccccc2)cc1.[O-][Cl+3]([O-])([O-])[O-],EC50,[4],0.879 µM (active)
same,AC50,[5],9.88 µM (active)
same,AC50,INS1,3.38 µM (active)
same,EC50,[6],> 160 µM (inactive)
same,CC50,[7],9.19 µM (active)
same,IC50,[8],9.1 µM (active)
O=C(/C=C/Nc1ccccc1F)c1cccs1,EC50,[9],0.641 µM (active)
same,EC50,[10],4.56 µM (active)
same,IC50,[11],> 67.6 µM (inactive)
same,IC50,Protein skinhead-1,14.7 µM (active)
CC1(C)CC(=O)C(C(C2=C(O)CC(C)(C)CC2=O)c2ccc(Br)s2)C(=O)C1 (stereo unspecified),EC50,[12],19.6 µM (active)
same,IC50,Genome polyprotein,21.5 µM (active)
same,IC50,[13],61.5 µM (active)
COC(=O)C12OCC34C(CC5C(C)=C(O)C(=O)CC5(C)C3C(O)C1O)OC(=O)C(OC(=O)C=C(C)C)C24 (stereo unspecified),GI50,P388/ADR,> 500 µM (inactive)
same,GI50,P388,> 500 µM (inactive)
same,AC50,[14],0.687 µM (active)
same,AC50,Paired box protein Pax-8,< 0.26 µM (active)
same,IC50,Protein skinhead-1,35.7 µM (active)
same,GI50,SN12K1,277 µM (inactive)
same,AC50,[15],< 0.26 µM (active)
same,IC50,[8],0.0223 µM (active)
N#Cc1c(N2CCNCC2)nc(-c2ccco2)c2c1CCCC2,AC50,[3],6.11 µM (active)
CCCCNc1c(-c2ccc(OC)c(SC(C)CC)c2)nc2ccc(C)cn12 (stereo unspecified),EC50,[12],15.4 µM (active)
same,AC50,[16],6.87 µM (active)
same,AC50,INS1,4.34 µM (active)
Cc1cc(C(=O)Nc2cccc3c2O[C@H](CN(C)Cc2ccc(Oc4ccccc4)cc2)[C@@H](C)CN([C@H](C)CO)C3=O)n(C)n1,AC50,[17],> 70 µM (inactive)
same,AC50,Paired box protein Pax-8,13.2 µM (active)
CC(=O)N1[C@@H]2c3ccc(/C=C/c4ccccc4)c(=O)n3C[C@H]1[C@H](CO)[C@H]2C(=O)N1CCOCC1,AC50,[3],3.12 µM (active)
C[C@H](CO)N1C[C@H](C)[C@H](CN(C)C(=O)Nc2cc(F)ccc2F)Oc2cc(/C=C/c3ccccc3)ccc2S1(=O)=O,AC50,[18],0.962 µM (active)
same,AC50,[19],1.77 µM (active)
same,AC50,[20],86.7 µM (active)
same,AC50,[21],2.06 µM (active)
same,AC50,[22],2.62 µM (active)
COc1cccc(CN2CCCCN3[C@H](CO)[C@@H](c4ccc(C#Cc5cccnc5)cc4)[C@@H]3C2)c1,AC50,[18],0.427 µM (active)
same,AC50,[19],1.34 µM (active)
same,AC50,[20],22.7 µM (active)
same,AC50,[21],1.21 µM (active)
same,AC50,[22],2.2 µM (active)
N#C[C@H]1[C@@H](c2ccc(C#Cc3ccccc3F)cc2)[C@@H](CO)N1C(=O)C1CCC1,AC50,[18],0.613 µM (active)
same,AC50,[19],1.57 µM (active)
same,AC50,[20],44.9 µM (active)
same,AC50,[21],1.04 µM (active)
same,AC50,[22],0.779 µM (active)
